Experimental data taken from patent US8563746B2, “Cyclic benzimidazole derivatives useful as anti-diabetic agents” (Merck Sharp & Dohme Corp, priority 2008, dated 2013).

What was measured:
ob/ob and db/db mice = conditions: following 8 weeks of administration; cited from earlier work
[1] = target: recombinant human AMPK complex 1 (containing α1β1γ1) (Homo sapiens, UniProt Q13131+Q9Y478); assay: In vitro AMPK activation assay ([…]); assay type: biochemical; conditions: recombinant human AMPK complex 1 (α1β1γ1); for Emax: basal activity subtracted, expressed as % maximum AMP activation
Protocol: The recombinant human AMPK complex 1 (containing α1β1γ1) was obtained from baculovirus expression system. Recombinant viruses were generated by cotransfection of AMPK/pBacPak9 clones with Baculogold baculovirus DNA (Pharmingen) in spodoptera frugiperda 21 cells according to the manufacturer's instructions. Each round of virus amplification was performed for 5 days in Grace's medium containing 10% serum. Virus that had been subjected to three rounds of amplification was used for all protein production procedures. To express the AMPK complex, sf21 cells were adapted to serum free medium (SF900 II, Invitrogen) by sequential dilution from serum containing stocks into SF900II medium and maintained in shaker flasks at 90 rpm at 27° C. The recombinant AMPK enzyme complex was produced by triple infection, one recombinant virus for each of the subunits, in sf21 cells under serum free conditions. Cells were infected in log phase, 1×10^6 cells/ml, at a multiplicity of infection of ˜5. Cells were harvested by centrifugation at 10,000×g for 15 minutes after 72 hours of infection with viruses. The insect cell pellet from 2 liters of culture was resuspended in 50 ml lysis buffer (20 mM Tris-HCl, 50 mM NaCl, 50 mM NaF, 30 mM Na PPi, 0.25 M sucrose, 10 mM ZnCl2, 2 mM DTT, 0.4 mg/ml digitonin) and subjected to two cycles of freeze-thaw lysis in a dry-ice ethanol bath. Insoluble material was removed by centrifugation at 10,000×g and the supernatant was fractionated with use of polyethylene glycol (PEG). The protein fraction precipitating between 2.5 and 6% PEG was used for further purification using a Blue-Sepharose step (Zhou et al, J. Clin. Invest. 108, 1167-1174, 2001).
The total in vitro AMPK activation assay volume is 50 μl in a 96-well plate. The reaction mixture contained 100 μM ATP (0.5 μCi ^33P-ATP per reaction), and 50 μM SAMS ([…]) in a buffer (20 mM HEPES, pH 7.0, 5 mM MgCl2, 0.01% Brij35). The reaction was initiated with addition of the enzyme. After 30-minute incubation at 30° C., the reaction was stopped by addition of 80 μl 1% H3PO4. Aliquots (100 μl) were transferred to 96-well MultiScreen plates (MAPHNOB50; Millipore Corp., Bedford, Mass., USA). The plate was washed three times with 1% H3PO4 followed by detection in a Top-count. The counts per minute from the basal activity (the reaction without activator) was subtracted from each well and the data were expressed as % maximum AMP activation followed by EC50 calculation.

Sequence of recombinant human AMPK complex 1 (containing α1β1γ1) (Q13131 whole entry): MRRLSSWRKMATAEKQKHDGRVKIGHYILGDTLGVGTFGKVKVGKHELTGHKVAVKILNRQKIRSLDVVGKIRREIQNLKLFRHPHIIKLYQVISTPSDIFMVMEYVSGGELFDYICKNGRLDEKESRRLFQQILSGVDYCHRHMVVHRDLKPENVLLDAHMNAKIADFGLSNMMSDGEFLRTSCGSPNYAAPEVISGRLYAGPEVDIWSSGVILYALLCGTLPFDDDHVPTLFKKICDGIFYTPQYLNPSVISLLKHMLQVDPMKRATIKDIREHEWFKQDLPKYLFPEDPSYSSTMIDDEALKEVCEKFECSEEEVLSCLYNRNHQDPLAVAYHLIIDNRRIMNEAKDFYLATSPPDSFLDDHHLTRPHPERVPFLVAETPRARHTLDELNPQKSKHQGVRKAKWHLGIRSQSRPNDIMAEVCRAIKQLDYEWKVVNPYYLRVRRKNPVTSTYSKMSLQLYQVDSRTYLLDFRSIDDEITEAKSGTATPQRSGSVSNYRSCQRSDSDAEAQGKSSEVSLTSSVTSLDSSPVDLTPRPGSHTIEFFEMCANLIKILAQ
Sequence of recombinant human AMPK complex 1 (containing α1β1γ1) (Q9Y478 whole entry): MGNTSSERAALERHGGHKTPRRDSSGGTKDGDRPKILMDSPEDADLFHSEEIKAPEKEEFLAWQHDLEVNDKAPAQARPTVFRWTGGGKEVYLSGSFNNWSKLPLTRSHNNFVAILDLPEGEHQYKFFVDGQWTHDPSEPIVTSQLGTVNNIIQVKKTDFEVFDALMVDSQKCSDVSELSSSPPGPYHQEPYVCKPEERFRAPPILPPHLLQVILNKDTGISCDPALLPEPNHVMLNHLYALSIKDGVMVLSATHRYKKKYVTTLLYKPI
Sequence of recombinant human AMPK complex 1 (containing α1β1γ1) (P54619 whole entry partner): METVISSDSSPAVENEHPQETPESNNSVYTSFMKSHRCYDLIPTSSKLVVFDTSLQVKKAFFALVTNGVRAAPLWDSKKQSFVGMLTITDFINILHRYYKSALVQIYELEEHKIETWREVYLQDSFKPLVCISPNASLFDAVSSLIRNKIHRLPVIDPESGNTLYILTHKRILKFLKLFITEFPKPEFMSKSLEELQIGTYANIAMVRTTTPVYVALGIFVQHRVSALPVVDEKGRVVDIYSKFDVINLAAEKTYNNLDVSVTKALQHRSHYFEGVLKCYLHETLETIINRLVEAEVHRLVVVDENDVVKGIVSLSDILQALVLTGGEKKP

Row | SMILES | Emax [1] | further results
1 | NC(=O)c1ncn([C@@H]2O[C@H](CO)[C@@H](O)[C@H]2O)c1N [AICAR] |  | blood glucose reduction (ob/ob and db/db mice): 35%
2 | O=C(O)CSc1nc2cc(-c3ccc4[nH]ccc4c3)c(Cl)cc2[nH]1 [Example 66] |  | EC50 ([1]; read-out: EC50): 0.282 µM
3 | O=C(O)CSc1nc2cc(C#Cc3ccc(Cl)cc3)c(Cl)cc2[nH]1 [Example 67] | > 40% | 
4 | O=C(O)CSc1nc2cc(C#Cc3ccc(Br)cc3)c(Cl)cc2[nH]1 [Example 68] | > 40% | 
5 | O=C(O)CSc1nc2cc(C#Cc3cc(F)cc(F)c3)c(Cl)cc2[nH]1 [Example 69] | > 40% | 
6 | O=C(O)CSc1nc2cc(C#Cc3ccccc3[N+](=O)[O-])c(Cl)cc2[nH]1 [Example 70] | > 40% | 
7 | O=C(O)CSc1nc2cc(-c3cccc(N4CCOCC4)n3)c(Cl)cc2[nH]1 [Example 71] | > 40% | 
8 | O=C(O)CSc1nc2cc(-c3csc(-c4ccccc4)n3)c(Cl)cc2[nH]1 [Example 72] | > 40% | 
9 | O=C(O)CSc1nc2cc(-c3ccc(-c4cnccn4)cc3)c(Cl)cc2[nH]1 [Example 73] | > 40% | 
10 | CCc1ccc(C(=O)Cc2cc3nc(SCC(=O)O)[nH]c3cc2Cl)cc1 [Example 74] | > 40% | 
11 | O=C(O)CSc1nc2cc(C#Cc3ccc(C(=O)O)cc3)c(Cl)cc2[nH]1 [Example 75] | > 40% | 
12 | CC(=O)Nc1ccc(C#Cc2cc3nc(SCC(=O)O)[nH]c3cc2Cl)cc1 [Example 76] | > 40% | 
13 | CS(=O)(=O)Nc1ccc(C#Cc2cc3nc(SCC(=O)O)[nH]c3cc2Cl)cc1 [Example 77] | > 40% | 
14 | CCNC(=O)Nc1ccc(C#Cc2cc3nc(SCC(=O)O)[nH]c3cc2Cl)cc1 [Example 78] | > 40% | 
15 | O=C(O)CSc1nc2cc(-c3ccc(Br)cc3)c(Cl)cc2[nH]1 [Example 79] | > 40% | 
16 | O=C(O)CSc1nc2cc(-c3ccc(C(F)(F)F)cc3)c(Cl)cc2[nH]1 [Example 81] | > 40% | 
17 | CN(C)C(=O)c1ccc(C#Cc2cc3nc(SCC(=O)O)[nH]c3cc2Cl)cc1 [Example 82] | > 40% | 
18 | CNC(=O)c1ccc(C#Cc2cc3nc(SCC(=O)O)[nH]c3cc2Cl)cc1 [Example 83] | > 40% | 
19 | CSc1ccc(-c2cc3nc(SCC(=O)O)[nH]c3cc2Cl)cc1 [Example 84] | > 40% | 
20 | Cc1cc(-c2cc3nc(SCC(=O)O)[nH]c3cc2Cl)ccc1Cl [Example 85] | > 40% | 
21 | C[S+]([O-])c1ccc(-c2cc3nc(SCC(=O)O)[nH]c3cc2Cl)cc1 (stereo not drawn) [Example 86] | > 40% | 
